From PubChem BioAssay AID328 (DTP/NCI, 2004)
Values joined by “and” are separate entries in the source; they are usually repeats but may differ in a detail not shown here. Equal entries are not always repeated. Inconclusive results and toxic doses are left out.

Tested on: BDF1 mice, P388 leukemia ip, median survival T/C
Test: NCI In Vivo Anticancer Drug Screen. Data for tumor model P388 Leukemia (intraperitoneal) in B6D2F1 (BDF1) mice
Settings: endpoint: median survival time, higher = longer survival
Procedure, shortened: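 Reported as T/C, where T is the survival measurement in dosed animals and C the same measurement in vehicle controls.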

[1] = dose: 100.0 mg/kg/injection, schedule: Q01DX009 (ip), vehicle: saline with Tween-80
[2] = dose: 100.0 mg/kg/injection, schedule: Q04DX003 (ip), vehicle: Klucel (hydroxypropylcellulose) (HPC)
[3] = dose: 200.0 mg/kg/injection, schedule: Q04DX003 (ip), vehicle: Klucel (hydroxypropylcellulose) (HPC)
[4] = dose: 100.0 mg/kg/injection, schedule: Q01DX009 (ip), vehicle: saline
[5] = dose: 200.0 mg/kg/injection, schedule: Q01DX009 (ip), vehicle: saline
[6] = dose: 100.0 mg/kg/injection, schedule: Q04DX003 (ip), vehicle: saline with Tween-80
[7] = dose: 200.0 mg/kg/injection, schedule: Q04DX003 (ip), vehicle: saline with Tween-80
[8] = dose: 400.0 mg/kg/injection, schedule: Q04DX003 (ip), vehicle: saline with Tween-80
[9] = dose: 50.0 mg/kg/injection, schedule: Q04DX003 (ip), vehicle: saline with Tween-80
[10] = dose: 50.0 mg/kg/injection, schedule: Q01DX009 (ip), vehicle: saline with Tween-80
[11] = dose: 200.0 mg/kg/injection, schedule: Q01DX009 (ip), vehicle: saline with Tween-80
[12] = dose: 25.0 mg/kg/injection, schedule: Q01DX009 (ip), vehicle: Klucel (hydroxypropylcellulose) (HPC)
[13] = dose: 50.0 mg/kg/injection, schedule: Q01DX009 (ip), vehicle: Klucel (hydroxypropylcellulose) (HPC)
[14] = dose: 50.0 mg/kg/injection, schedule: Q04DX003 (ip), vehicle: Klucel (hydroxypropylcellulose) (HPC)
[15] = dose: 100.0 mg/kg/injection, schedule: Q01DX009 (ip), vehicle: Klucel (hydroxypropylcellulose) (HPC)

SMILES: CCOC(=O)C(Br)(C(=O)OCC)C(c1ccccc1)c1ccccc1
- T/C [1]: 95 % of control
- T/C (dose: 400.0 mg/kg/injection, schedule: Q01DX009 (ip), vehicle: saline with Tween-80): 109 % of control

SMILES: COc1cc2cccccc-2cc1=O
- T/C [2]: 110 % of control
- T/C [3]: 115 % of control
- T/C (dose: 400.0 mg/kg/injection, schedule: Q04DX003 (ip), vehicle: Klucel (hydroxypropylcellulose) (HPC)): 115 % of control

SMILES: CC(N)C(=O)O (stereo unspecified)
- T/C [4]: 91 % of control
- T/C (dose: 100.0 mg/kg/injection, schedule: Q04DX003 (ip), vehicle: saline): 88 % of control
- T/C [5]: 108 % of control
- T/C (dose: 200.0 mg/kg/injection, schedule: Q04DX003 (ip), vehicle: saline): 100 % of control
- T/C (dose: 400.0 mg/kg/injection, schedule: Q01DX009 (ip), vehicle: saline): 100 % of control

SMILES: CS(=O)(=O)C(F)(F)C(F)(F)C(F)(F)C(F)(F)F
- T/C (dose: 50.0 mg/kg/injection, schedule: Q01DX009 (ip), vehicle: saline): 101 % of control
- T/C [4]: 101 % of control
- T/C [5]: 106 % of control

SMILES: S=c1c2[nH]cnc2ncn1CCSC1=NC=NC2=NC=NC21 (stereo unspecified)
- T/C [6]: 100 % of control
- T/C [7]: 95 % of control
- T/C [8]: 109 % of control

SMILES: NC(=O)NN=C(CS)CS
- T/C (dose: 6.25 mg/kg/injection, schedule: Q01DX009 (ip), vehicle: gum acacia): 101 % of control
- T/C (dose: 12.5 mg/kg/injection, schedule: Q01DX009 (ip), vehicle: gum acacia): 100 % of control
- T/C (dose: 25.0 mg/kg/injection, schedule: Q01DX009 (ip), vehicle: gum acacia): 102 % of control
- T/C (dose: 50.0 mg/kg/injection, schedule: Q01DX009 (ip), vehicle: gum acacia): 100 % of control

SMILES: CC(C)(C)P(c1ccccc1)c1ccccc1
- T/C [9]: 111 % of control
- T/C [6]: 107 % of control
- T/C [7]: 96 % of control

SMILES: CCCCCCCCCC(=O)NC(C)C(O)c1ccccc1 (stereo unspecified)
- T/C [10]: 109 % of control
- T/C [1]: 100 % of control
- T/C [11]: 89 % of control

SMILES: COC(=O)c1c2ccccc2cn1Cc1ccccc1
- T/C (dose: 25.0 mg/kg/injection, schedule: Q01DX009 (ip), vehicle: saline with Tween-80): 89 % of control
- T/C [10]: 90 % of control and 93 % of control
- T/C [1]: 100 % of control
- T/C [11]: 100 % of control

SMILES: CCCCCCCCCCCCCCCCCC(=O)[O][Hg][c]1ccccc1
- T/C (dose: 5.0 mg/kg/injection, schedule: Q01DX009 (ip), vehicle: Klucel (hydroxypropylcellulose) (HPC)): 100 % of control
- T/C (dose: 5.5 mg/kg/injection, schedule: Q01DX001 (ip), vehicle: Klucel (hydroxypropylcellulose) (HPC)): 104 % of control
- T/C (dose: 10.0 mg/kg/injection, schedule: Q01DX009 (ip), vehicle: Klucel (hydroxypropylcellulose) (HPC)): 104 % of control
- T/C (dose: 10.0 mg/kg/injection, schedule: Q01DX009 (ip), vehicle: other): 115 % of control
- T/C (dose: 11.0 mg/kg/injection, schedule: Q01DX001 (ip), vehicle: Klucel (hydroxypropylcellulose) (HPC)): 95 % of control
- T/C (dose: 14.0 mg/kg/injection, schedule: Q04DX003 (ip), vehicle: Klucel (hydroxypropylcellulose) (HPC)): 115 % of control
- T/C (dose: 20.0 mg/kg/injection, schedule: Q01DX009 (ip), vehicle: Klucel (hydroxypropylcellulose) (HPC)): 109 % of control
- T/C (dose: 22.0 mg/kg/injection, schedule: Q04DX003 (ip), vehicle: Klucel (hydroxypropylcellulose) (HPC)): 120 % of control

SMILES: O=C1NC(=O)C(Cc2ccccc2)(c2ccccc2)N1 (stereo unspecified)
- T/C (dose: 75.0 mg/kg/injection, schedule: Q01DX009 (ip), vehicle: saline with Tween-80): 97 % of control
- T/C (dose: 150.0 mg/kg/injection, schedule: Q01DX009 (ip), vehicle: saline with Tween-80): 100 % of control

SMILES: [Se]c1ccnc([Se])n1
- T/C [9]: 100 % of control
- T/C [6]: 90 % of control
- T/C [7]: 100 % of control

SMILES: O=C(O)/C=C/C(=O)Nc1ccc(I)cc1
- T/C [10]: 109 % of control
- T/C [1]: 109 % of control
- T/C [11]: 104 % of control

SMILES: C[P+](C)(c1ccccc1)c1ccccc1
- T/C (dose: 6.25 mg/kg/injection, schedule: Q04DX003 (ip), vehicle: saline with Tween-80): 100 % of control
- T/C (dose: 12.5 mg/kg/injection, schedule: Q04DX003 (ip), vehicle: saline with Tween-80): 104 % of control

SMILES: CC(=O)Nc1cc(C)ccc1O
- T/C [6]: 100 % of control
- T/C [7]: 104 % of control
- T/C [8]: 90 % of control

SMILES: CP(C)c1ccccc1
- T/C [12]: 92 % of control
- T/C [13]: 96 % of control
- T/C [14]: 100 % of control
- T/C [15]: 103 % of control
- T/C [2]: 123 % of control

SMILES: CNC(=S)N/N=C(\C)CSC/C(C)=N/NC(=S)NC
- T/C (dose: 7.5 mg/kg/injection, schedule: Q01DX009 (ip), vehicle: saline with Tween-80): 102 % of control
- T/C (dose: 15.0 mg/kg/injection, schedule: Q01DX009 (ip), vehicle: saline with Tween-80): 99 % of control and 122 % of control
- T/C (dose: 30.0 mg/kg/injection, schedule: Q01DX009 (ip), vehicle: saline with Tween-80): 102 % of control and 124 % of control
- T/C (dose: 60.0 mg/kg/injection, schedule: Q01DX009 (ip), vehicle: saline with Tween-80): 92 % of control

SMILES: CC(=O)OC1(CSc2ccccc2)CCCCC1
- T/C [10]: 93 % of control

SMILES: CS(=O)(=O)Nc1ccc(Nc2c3ccccc3nc3cc([N+](=O)[O-])ccc23)cc1
- T/C (dose: 0.09 mg/kg/injection, schedule: Q04DX003 (ip), vehicle: saline with Tween-80): 91 % of control
- T/C (dose: 0.18 mg/kg/injection, schedule: Q04DX003 (ip), vehicle: saline with Tween-80): 100 % of control
- T/C (dose: 0.75 mg/kg/injection, schedule: Q01DX009 (ip), vehicle: saline with Tween-80): 169 % of control
- T/C (dose: 1.5 mg/kg/injection, schedule: Q01DX009 (ip), vehicle: saline with Tween-80): 185 % of control
- T/C (dose: 1.5 mg/kg/injection, schedule: Q04DX003 (ip), vehicle: saline with Tween-80): 150 % of control
- T/C (dose: 3.0 mg/kg/injection, schedule: Q01DX009 (ip), vehicle: saline with Tween-80): 235 % of control
- T/C (dose: 3.0 mg/kg/injection, schedule: Q04DX003 (ip), vehicle: saline with Tween-80): 162 % of control
- T/C (dose: 6.0 mg/kg/injection, schedule: Q04DX003 (ip), vehicle: saline with Tween-80): 252 % of control and 183 % of control and 200 % of control
- T/C (dose: 9.0 mg/kg/injection, schedule: Q04DX003 (ip), vehicle: saline with Tween-80): 285 % of control and 204 % of control
- T/C (dose: 14.0 mg/kg/injection, schedule: Q04DX003 (ip), vehicle: saline with Tween-80): 250 % of control and 285 % of control
- T/C (dose: 21.0 mg/kg/injection, schedule: Q04DX003 (ip), vehicle: saline with Tween-80): 250 % of control and 272 % of control and 157 % of control

SMILES: c1ccc(C2C3(c4ccccc4)C4(c5ccccc5)OC(c5ccccc5)(c5ccccc54)C23c2ccccc2)cc1 (stereo unspecified)
- T/C [13]: 91 % of control
- T/C [15]: 103 % of control
- T/C (dose: 200.0 mg/kg/injection, schedule: Q01DX009 (ip), vehicle: Klucel (hydroxypropylcellulose) (HPC)): 92 % of control

SMILES: Nc1nc(=S)c2[nH]c(N=Nc3ccc(S(=O)(=O)Nc4ccccn4)cc3)nc2[nH]1
- T/C (dose: 12.5 mg/kg/injection, schedule: Q01DX009 (ip), vehicle: Klucel (hydroxypropylcellulose) (HPC)): 108 % of control
- T/C [12]: 91 % of control
- T/C [13]: 90 % of control
- T/C [14]: 87 % of control
- T/C [2]: 116 % of control
- T/C [3]: 104 % of control
